From the kinase profiling compilation of Christmann-Franck et al. (2016)
Several values for one entry are separate records, joined by “and”; a condition that tells them apart may be missing. Equal values may be shown once.

Key:
Experiment in all cases: radiometric filter-binding kinase assay, Kinase HotSpot
Conditions in all cases: compound 0.5 µM; ATP 10 µM
TLK2 (human) = TLK2 (human) (UniProt Q86UE8)
TGFBR1 (human) = TGFBR1 (human) (UniProt P36897)
PHKG1 (human) = PHKG1 (human) (UniProt Q16816)
PDGFRA (human) = PDGFRA (human) (UniProt P16234)
LYN (human) = LYN (human) (UniProt P07948)
NEK3 (human) = NEK3 (human) (UniProt P51956)
MAP3K9 (human) = MAP3K9 (human) (UniProt P80192)
TEC (human) = TEC (human) (UniProt P42680)
SRMS (human) = SRMS (human) (UniProt Q9H3Y6)
STK25 (human) = STK25 (human) (UniProt O00506)
PRKCD (human) = PRKCD (human) (UniProt Q05655)
DSTYK (human) = DSTYK (human) (UniProt Q6XUX3)
MET (human) = MET (human) (UniProt P08581)
EPHA6 (human) = EPHA6 (human) (UniProt Q9UF33)
NEK6 (human) = NEK6 (human) (UniProt Q9HC98)
ACVR1 (human) = ACVR1 (human) (UniProt Q04771)
PHKG2 (human) = PHKG2 (human) (UniProt P15735)
STK16 (human) = STK16 (human) (UniProt O75716)
ADRBK1 (human) = ADRBK1 (human) (UniProt P25098)
PTK2 (human) = PTK2 (human) (UniProt Q05397)
CDC42BPB (human) = CDC42BPB (human) (UniProt Q9Y5S2)
DAPK2 (human) = DAPK2 (human) (UniProt Q9UIK4)
EPHB4 (human) = EPHB4 (human) (UniProt P54760)
TSSK2 (human) = TSSK2 (human) (UniProt Q96PF2)
FGFR4 (human) = FGFR4 (human) (UniProt P22455)
IGF1R (human) = IGF1R (human) (UniProt P08069)
IRAK4 (human) = IRAK4 (human) (UniProt Q9NWZ3)
NEK9 (human) = NEK9 (human) (UniProt Q8TD19)
NUAK2 (human) = NUAK2 (human) (UniProt Q9H093)
ABL1 (human) = ABL1 (human) (UniProt P00519)
DYRK2 (human) = DYRK2 (human) (UniProt Q92630)
RAF1 (human) = RAF1 (human) (UniProt P04049)
ADRBK2 (human) = ADRBK2 (human) (UniProt P35626)
CDC42BPA (human) = CDC42BPA (human) (UniProt Q5VT25)
RPS6KA6 KD1 KD2 (human) = RPS6KA6 KD1 KD2 (human) (UniProt Q9UK32)
LIMK1 (human) = LIMK1 (human) (UniProt P53667)
CAMK1G (human) = CAMK1G (human) (UniProt Q96NX5)
EPHB3 (human) = EPHB3 (human) (UniProt P54753)
CHEK1 (human) = CHEK1 (human) (UniProt O14757)

Chain of LYN (human) (P07948 whole entry, looked up): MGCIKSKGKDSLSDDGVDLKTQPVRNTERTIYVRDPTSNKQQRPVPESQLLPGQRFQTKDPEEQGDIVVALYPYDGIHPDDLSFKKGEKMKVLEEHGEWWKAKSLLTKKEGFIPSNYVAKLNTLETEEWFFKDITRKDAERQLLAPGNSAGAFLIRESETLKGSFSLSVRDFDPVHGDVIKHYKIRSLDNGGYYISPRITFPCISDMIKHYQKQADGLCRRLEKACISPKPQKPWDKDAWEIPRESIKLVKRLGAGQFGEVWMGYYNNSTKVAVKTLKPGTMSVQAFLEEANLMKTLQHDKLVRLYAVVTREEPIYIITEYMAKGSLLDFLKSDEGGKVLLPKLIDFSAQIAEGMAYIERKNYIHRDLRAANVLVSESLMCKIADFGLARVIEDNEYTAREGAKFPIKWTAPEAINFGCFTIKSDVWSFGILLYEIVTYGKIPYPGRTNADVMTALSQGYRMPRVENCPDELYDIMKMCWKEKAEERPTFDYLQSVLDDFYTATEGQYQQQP
Chain of IRAK4 (human) (Q9NWZ3 whole entry, looked up): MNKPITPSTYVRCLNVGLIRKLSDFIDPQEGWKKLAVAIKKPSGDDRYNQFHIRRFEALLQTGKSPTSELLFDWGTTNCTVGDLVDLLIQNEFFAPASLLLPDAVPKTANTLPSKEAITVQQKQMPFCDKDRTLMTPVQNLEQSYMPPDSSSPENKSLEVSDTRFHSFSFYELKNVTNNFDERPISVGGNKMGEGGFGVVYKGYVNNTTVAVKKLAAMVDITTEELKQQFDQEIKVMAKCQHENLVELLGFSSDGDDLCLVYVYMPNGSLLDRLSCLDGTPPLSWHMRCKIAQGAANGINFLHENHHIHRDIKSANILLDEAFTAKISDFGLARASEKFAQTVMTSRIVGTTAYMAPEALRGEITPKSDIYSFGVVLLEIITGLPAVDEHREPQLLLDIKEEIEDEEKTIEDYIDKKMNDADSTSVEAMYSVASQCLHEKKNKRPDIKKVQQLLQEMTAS
Chain of PTK2 (human) (Q05397 whole entry, looked up): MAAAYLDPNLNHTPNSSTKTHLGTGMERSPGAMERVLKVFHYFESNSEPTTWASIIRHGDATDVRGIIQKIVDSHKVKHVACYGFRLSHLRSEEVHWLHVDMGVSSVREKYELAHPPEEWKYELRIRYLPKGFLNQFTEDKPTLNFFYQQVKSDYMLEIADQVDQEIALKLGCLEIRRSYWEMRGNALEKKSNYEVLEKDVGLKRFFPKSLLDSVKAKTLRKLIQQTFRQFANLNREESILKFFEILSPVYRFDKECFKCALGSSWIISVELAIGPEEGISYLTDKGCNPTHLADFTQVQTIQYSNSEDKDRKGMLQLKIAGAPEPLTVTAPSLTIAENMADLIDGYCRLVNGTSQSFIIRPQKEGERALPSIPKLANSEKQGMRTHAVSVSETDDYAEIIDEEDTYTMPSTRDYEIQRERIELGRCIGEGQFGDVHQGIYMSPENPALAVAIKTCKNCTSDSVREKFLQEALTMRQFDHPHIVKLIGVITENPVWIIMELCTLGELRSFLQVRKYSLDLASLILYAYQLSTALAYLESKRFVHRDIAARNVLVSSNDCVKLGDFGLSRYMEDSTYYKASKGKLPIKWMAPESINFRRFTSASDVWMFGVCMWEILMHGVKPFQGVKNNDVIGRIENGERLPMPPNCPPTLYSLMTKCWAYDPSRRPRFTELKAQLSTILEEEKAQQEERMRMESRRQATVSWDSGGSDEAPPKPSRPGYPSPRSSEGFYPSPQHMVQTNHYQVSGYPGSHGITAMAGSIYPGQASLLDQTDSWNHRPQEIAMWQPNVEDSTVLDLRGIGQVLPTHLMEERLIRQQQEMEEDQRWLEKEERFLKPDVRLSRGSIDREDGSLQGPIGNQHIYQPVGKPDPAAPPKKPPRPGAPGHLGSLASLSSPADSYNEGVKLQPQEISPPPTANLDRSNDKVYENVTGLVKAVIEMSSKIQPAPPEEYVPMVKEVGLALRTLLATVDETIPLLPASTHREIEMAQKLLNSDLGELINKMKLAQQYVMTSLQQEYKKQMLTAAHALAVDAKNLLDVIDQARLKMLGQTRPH
Chain of NEK3 (human) (P51956 whole entry, looked up): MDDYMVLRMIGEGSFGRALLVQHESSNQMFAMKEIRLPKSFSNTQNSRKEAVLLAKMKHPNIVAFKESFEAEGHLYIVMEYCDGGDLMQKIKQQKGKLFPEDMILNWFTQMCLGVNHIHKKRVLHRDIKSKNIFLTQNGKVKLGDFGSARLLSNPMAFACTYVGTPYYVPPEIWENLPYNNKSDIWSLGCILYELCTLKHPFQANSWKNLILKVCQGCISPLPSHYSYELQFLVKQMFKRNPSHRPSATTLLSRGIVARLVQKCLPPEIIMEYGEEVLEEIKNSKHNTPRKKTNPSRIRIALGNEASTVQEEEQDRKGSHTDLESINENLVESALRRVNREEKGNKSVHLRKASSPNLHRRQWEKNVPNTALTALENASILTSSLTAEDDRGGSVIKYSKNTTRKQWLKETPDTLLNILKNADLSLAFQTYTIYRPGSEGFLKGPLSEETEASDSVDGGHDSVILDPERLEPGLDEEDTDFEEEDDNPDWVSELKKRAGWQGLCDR
Chain of PDGFRA (human) (P16234 whole entry, looked up): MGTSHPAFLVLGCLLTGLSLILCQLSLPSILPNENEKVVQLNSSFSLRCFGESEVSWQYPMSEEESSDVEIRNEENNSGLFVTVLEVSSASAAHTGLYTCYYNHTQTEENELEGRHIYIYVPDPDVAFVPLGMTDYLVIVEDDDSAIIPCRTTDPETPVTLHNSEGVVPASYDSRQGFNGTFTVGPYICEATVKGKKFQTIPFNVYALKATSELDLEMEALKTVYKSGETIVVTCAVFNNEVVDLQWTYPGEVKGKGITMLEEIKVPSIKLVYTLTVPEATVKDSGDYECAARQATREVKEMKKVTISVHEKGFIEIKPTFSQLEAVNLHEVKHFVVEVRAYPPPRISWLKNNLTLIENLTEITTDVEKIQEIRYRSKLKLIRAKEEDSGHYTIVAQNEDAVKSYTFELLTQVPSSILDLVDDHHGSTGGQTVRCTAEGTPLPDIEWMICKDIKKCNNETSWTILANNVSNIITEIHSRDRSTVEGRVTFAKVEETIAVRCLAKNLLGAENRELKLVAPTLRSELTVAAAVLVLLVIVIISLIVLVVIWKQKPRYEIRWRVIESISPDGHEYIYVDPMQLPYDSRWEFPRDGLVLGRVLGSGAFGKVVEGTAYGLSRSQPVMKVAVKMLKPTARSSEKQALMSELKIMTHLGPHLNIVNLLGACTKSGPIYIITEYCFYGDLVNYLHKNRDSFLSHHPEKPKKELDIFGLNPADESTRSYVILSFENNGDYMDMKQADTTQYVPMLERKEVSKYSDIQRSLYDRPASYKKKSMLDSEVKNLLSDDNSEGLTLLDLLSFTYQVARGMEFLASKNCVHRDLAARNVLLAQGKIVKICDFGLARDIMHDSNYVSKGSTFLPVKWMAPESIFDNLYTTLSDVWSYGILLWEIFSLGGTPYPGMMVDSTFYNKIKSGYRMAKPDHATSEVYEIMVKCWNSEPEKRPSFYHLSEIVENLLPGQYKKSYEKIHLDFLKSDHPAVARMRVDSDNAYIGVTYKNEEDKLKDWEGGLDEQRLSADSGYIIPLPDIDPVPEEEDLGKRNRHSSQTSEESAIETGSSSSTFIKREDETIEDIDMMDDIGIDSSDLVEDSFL
Chain of ABL1 (human) (P00519 whole entry, looked up): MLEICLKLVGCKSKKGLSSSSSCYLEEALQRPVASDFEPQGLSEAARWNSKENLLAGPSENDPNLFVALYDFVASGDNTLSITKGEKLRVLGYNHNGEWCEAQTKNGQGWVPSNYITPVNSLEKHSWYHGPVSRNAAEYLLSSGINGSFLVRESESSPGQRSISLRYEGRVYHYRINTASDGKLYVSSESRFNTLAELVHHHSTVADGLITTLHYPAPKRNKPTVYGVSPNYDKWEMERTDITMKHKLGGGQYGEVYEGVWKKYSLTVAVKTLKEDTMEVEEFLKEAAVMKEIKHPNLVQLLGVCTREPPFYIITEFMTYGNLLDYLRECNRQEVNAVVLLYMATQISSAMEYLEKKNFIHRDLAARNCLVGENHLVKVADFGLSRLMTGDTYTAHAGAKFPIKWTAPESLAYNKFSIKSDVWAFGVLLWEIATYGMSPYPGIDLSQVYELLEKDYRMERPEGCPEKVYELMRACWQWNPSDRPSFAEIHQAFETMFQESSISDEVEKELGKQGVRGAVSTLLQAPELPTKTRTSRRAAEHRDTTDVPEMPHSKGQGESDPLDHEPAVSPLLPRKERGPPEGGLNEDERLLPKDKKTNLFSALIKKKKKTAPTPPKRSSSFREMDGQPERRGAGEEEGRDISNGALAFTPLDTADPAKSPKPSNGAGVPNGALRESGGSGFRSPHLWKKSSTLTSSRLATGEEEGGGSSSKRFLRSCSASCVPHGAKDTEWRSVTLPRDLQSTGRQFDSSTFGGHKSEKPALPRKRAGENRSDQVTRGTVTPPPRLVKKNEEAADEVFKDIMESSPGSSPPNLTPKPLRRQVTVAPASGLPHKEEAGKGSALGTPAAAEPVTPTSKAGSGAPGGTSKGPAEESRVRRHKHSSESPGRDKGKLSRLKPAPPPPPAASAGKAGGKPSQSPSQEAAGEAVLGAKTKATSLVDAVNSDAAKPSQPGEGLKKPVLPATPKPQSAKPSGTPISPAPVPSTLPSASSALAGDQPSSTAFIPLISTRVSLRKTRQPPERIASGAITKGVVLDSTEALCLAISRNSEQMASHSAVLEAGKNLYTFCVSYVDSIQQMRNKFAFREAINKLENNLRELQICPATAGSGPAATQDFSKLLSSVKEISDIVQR
Chain of NEK6 (human) (Q9HC98 whole entry, looked up): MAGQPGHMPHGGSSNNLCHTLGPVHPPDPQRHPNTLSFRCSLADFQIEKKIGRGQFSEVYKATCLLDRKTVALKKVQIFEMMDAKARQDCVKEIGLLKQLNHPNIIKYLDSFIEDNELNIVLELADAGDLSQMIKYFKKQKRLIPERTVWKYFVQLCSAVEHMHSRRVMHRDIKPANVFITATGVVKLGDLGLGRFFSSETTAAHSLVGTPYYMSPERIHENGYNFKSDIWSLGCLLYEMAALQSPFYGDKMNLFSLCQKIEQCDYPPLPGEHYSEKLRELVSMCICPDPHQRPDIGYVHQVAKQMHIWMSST

SMILES | residual activity (TLK2 (human)) [%] | residual activity (TGFBR1 (human)) [%] | residual activity (PHKG1 (human)) [%] | residual activity (PDGFRA (human)) [%] | residual activity (LYN (human)) | residual activity (NEK3 (human)) [%] | residual activity (MAP3K9 (human)) [%] | residual activity (TEC (human)) [%] | residual activity (SRMS (human)) [%] | residual activity (STK25 (human)) [%] | residual activity (PRKCD (human)) [%] | residual activity (DSTYK (human)) [%] | residual activity (MET (human)) [%] | residual activity (EPHA6 (human)) [%] | residual activity (NEK6 (human)) [%] | residual activity (ACVR1 (human)) [%] | residual activity (PHKG2 (human)) [%] | residual activity (STK16 (human)) [%] | residual activity (ADRBK1 (human)) [%] | residual activity (PTK2 (human)) [%] | other results
Oc1cccc(-c2nc(N3CCOCC3)c3oc4ncccc4c3n2)c1 | 102 | 95 | 93.3 | 99.4 | 102% and 98.3% | 92.9 | 103 | 113 | 96.2 | 93.4 | 96 | 96.1 | 97.8 | 79 | 106 | 105 | 99.1 | 91.7 | 107 | 93.5 | residual activity (CDC42BPB (human)): 99.4%; residual activity (DAPK2 (human)): 117%; residual activity (EPHB4 (human)): 104%; residual activity (TSSK2 (human)): 102%; residual activity (FGFR4 (human)): 102%; residual activity (IGF1R (human)): 97.1%; residual activity (IRAK4 (human)): 104%; residual activity (NEK9 (human)): 99.3%; residual activity (NUAK2 (human)): 75.3%; residual activity (ABL1 (human)): 94.4%; residual activity (DYRK2 (human)): 97.6%; residual activity (RAF1 (human)): 79.1%; residual activity (ADRBK2 (human)): 110%; residual activity (CDC42BPA (human)): 94.5%; residual activity (RPS6KA6 KD1 KD2 (human)): 98.2%; residual activity (LIMK1 (human)): 93.7%; residual activity (CAMK1G (human)): 99.2%
CCCC(=O)Oc1ccc2[nH]c(C(=O)c3cc4ccccc4[nH]3)cc2c1 | 97.1 | 101 | 93.7 | 96.6 | 103% and 98.7% | 95.5 | 97.7 | 97.8 | 104 | 94.5 | 88.8 | 94.9 | 103 | 88 | 101 | 100 | 117 | 100 | 101 | 94.1 | residual activity (EPHB3 (human)): 94.2%; residual activity (CDC42BPB (human)): 99.5%; residual activity (DAPK2 (human)): 88.4%; residual activity (EPHB4 (human)): 101%; residual activity (TSSK2 (human)): 78%; residual activity (FGFR4 (human)): 90.9%; residual activity (IGF1R (human)): 88.3%; residual activity (IRAK4 (human)): 82.7%; residual activity (NEK9 (human)): 110%; residual activity (NUAK2 (human)): 73.4%; residual activity (CHEK1 (human)): 89.7%; residual activity (ABL1 (human)): 100%; residual activity (DYRK2 (human)): 91.8%; residual activity (RAF1 (human)): 98.7%; residual activity (ADRBK2 (human)): 101%; residual activity (CDC42BPA (human)): 98%; residual activity (RPS6KA6 KD1 KD2 (human)): 95.4%; residual activity (LIMK1 (human)): 93.9%; residual activity (CAMK1G (human)): 100%
